Measurements taken from paper PMC7576618 (British Journal of Clinical Pharmacology, 2020).
Values joined by “and” are separate entries in the source; they are usually repeats but may differ in a detail not shown here. Equal values may be shown once. “Also recorded” adds a separate entry of the source.

What was measured:
[1] = tested on: spontaneous locomotor activity in rats; assay: Spontaneous locomotor activity; conditions: doses similar to those which block psychostimulants‐induced hyperlocomotion
mGlu3 receptor = conditions: read-out: in vitro EC50 for mGlu3 receptor; authors' assay system; cited from earlier work
[2] = tested on: MK‐801‐induced social recognition deficits in rats; assay: MK-801-induced social recognition deficits; conditions: MGS0008 1, 3, 10 mg kg^-1 p.o., MK-801 0.2 mg kg^-1 i.p.
[3] = SAD study: plasma pharmacokinetics after single oral TS-134; assay type: in vivo, human; conditions: for AUC / Cmax / half-life / Tmax: both, human, plasma; for AUC: AUC0‐inf; for AUC / Cmax: mean (CV[%]); for Tmax: median
[4] = SAD study Part B: CSF pharmacokinetics of MGS0008 after 10 mg TS-134; assay type: in vivo, human; conditions: 10 mg TS‐134 under fed condition
[5] = MAD study: plasma pharmacokinetics after multiple oral dose titration of TS-134; assay type: in vivo, human; conditions: for AUC / half-life: both, human, plasma, oral, MAD Day 14, fed; for AUC: AUC0‐tau, mean (CV[%]); for half-life: t1/2, mean (CV[%])
[6] = tested on: memantine‐increased 2‐deoxy‐D‐glucose uptake in the prefrontal cortex; assay: Memantine-induced 2-deoxy-D-glucose uptake in the prefrontal cortex; conditions: mice; MGS0008 0.3, 1, 3 mg kg^-1 s.c.; memantine 30 mg kg^-1 s.c.
[7] = tested on: phencyclidine‐induced locomotor hyperactivity in rats; assay: Phencyclidine-induced locomotor hyperactivity; conditions: MGS0008 1, 3, 10 mg kg^-1 p.o., phencyclidine 3 mg kg^-1 s.c.
[8] = rats; cited from earlier work
[9] = tested on: methamphetamine‐induced locomotor hyperactivity in rats; assay: Methamphetamine-induced locomotor hyperactivity; conditions: MGS0008 1, 3, 10 mg kg^-1 p.o., methamphetamine 1 mg kg^-1 s.c.
[10] = SAD study: urinary excretion; assay type: in vivo, human; conditions: for CL renal: both, human, oral
[11] = MAD study: urinary excretion; assay type: in vivo, human; conditions: urine, MAD Day 14; for CL renal: both, human, oral, CLr, mean (CV[%])
[12] = oral, 5 mg, SAD Parts A and C, 5 mg fasted (n = 6)
[13] = oral, 10 mg, SAD Parts A and C, 10 mg fasted (n = 4)
[14] = oral, 10 mg, SAD Parts A and C, 10 mg fed (n = 3)
[15] = oral, 20 mg, SAD Parts A and C, 20 mg fasted (n = 3)
[16] = oral, 20 mg, SAD Parts A and C, 20 mg fed (n = 3)

## N[C@]1(C(=O)O)[C@H]2[C@@H](C[C@@H]1F)[C@@H]2C(=O)O [MGS0008, (1S,2S,3S,5R,6S)‐2‐amino‐3‐fluorobicyclo[3.1.0]hexane‐2,6‐dicarboxylic acid]
[1]
  effect on spontaneous locomotor activity: significantly reduced
mGlu3 receptor
  EC50: 45.4 nM
[2]
  effect on MK‐801‐induced impaired social memory: significantly reversed
[3]; SAD, 10 and 20 mg TS‐134
  reduction of plasma AUC in the fed group (food effect): ≤ 25%
  reduction of plasma Cmax in the fed group (food effect): up to 57%
[3]; [12]
  AUC: 278 ng·h/mL
  Cmax: 25.9 ng/mL
  Tmax: 2 h
[3]; oral, 5 mg, t1/2, mean (CV[%]), SAD Parts A and C, 5 mg fasted (n = 6)
  half-life: 7.75 h
[3]; [13]
  AUC: 535 ng·h/mL
  Cmax: 60.6 ng/mL
  Tmax: 2 h
[3]; [14]
  AUC: 390 ng·h/mL
  Cmax: 28.1 ng/mL
  Tmax: 4 h
[3]; oral, 10 mg, t1/2, mean (CV[%]), SAD Part B, 10 mg fed (n = 7)
  half-life: 8.49 h
[3]; oral, 10 mg, t1/2, mean (CV[%]), SAD Parts A and C, 10 mg fasted (n = 4)
  half-life: 8.41 h
[3]; oral, 10 mg, t1/2, mean (CV[%]), SAD Parts A and C, 10 mg fed (n = 3)
  half-life: 8.7 h
[3]; [15]
  AUC: 840 ng·h/mL
  Cmax: 89.4 ng/mL
  Tmax: 3 h
[3]; [16]
  AUC: 677 ng·h/mL
  Cmax: 60.2 ng/mL
  Tmax: 2 h
[3]; oral, 20 mg, t1/2, mean (CV[%]), SAD Parts A and C, 20 mg fasted (n = 3)
  half-life: 6.96 h
[3]; oral, 20 mg, t1/2, mean (CV[%]), SAD Parts A and C, 20 mg fed (n = 3)
  half-life: 6.91 h
[3]; po, terminal half‐life (t1/2) in plasma, single and multiple oral administration of TS‐134 (SAD and MAD studies)
  half-life: ~10 h
[3]; molar ratio, SAD and MAD studies
  plasma Cmax of MGS0008 relative to that of MGS0274: approximately 6 fold
[3]; molar ratio, all treatment groups with or without food
  plasma AUC of MGS0008 relative to that of MGS0274: approximately 30 fold
[4]
  mean CSF Cmax (molar): 6.12 nM
[5]; MAD, 5–80 mg
  dose proportionality of steady‐state plasma Cmax and AUC: increased dose proportionally; also recorded: dose proportional increases
[5]; after initiating multiple doses of target dose levels, data not shown
  time for plasma trough concentrations to reach steady state: ≤ 2 days
[5]; 5 mg, 5 mg (n = 8)
  AUC: 233 ng·h/mL
  half-life: 9.68 h
[5]; 10 mg, 10 mg (n = 8)
  AUC: 475 ng·h/mL
  half-life: 10.9 h
[5]; 20 mg, 20 mg (n = 8)
  AUC: 817 ng·h/mL
  half-life: 10.4 h
[5]; 40 mg, 40 mg (n = 8)
  AUC: 1640 ng·h/mL
  half-life: 10.3 h
[5]; 60 mg, 60 mg (n = 8)
  AUC: 3100 ng·h/mL
  half-life: 9.43 h
[6]
  effect on memantine‐increased 2‐deoxy‐D‐glucose uptake (2‐DG6P) in the prefrontal cortex: attenuated
[7]
  effect on phencyclidine‐induced locomotor hyperactivity: significantly attenuated
[8]
  CSF‐to‐plasma AUC ratio: 2.8%
  presence in the cerebrospinal fluid (CSF) after oral administration of MGS0008: detected
[9]
  effect on methamphetamine‐induced locomotor hyperactivity: significantly attenuated
[10]; SAD and MAD studies, dose range 5–80 mg
  urinary excretion rate, % of the administered doses: 29.38 to 69.01% and 29.38–69.01%
[10]; urine and plasma, renal clearance, range, SAD and MAD studies
  CL renal: 70.6 to 103 mL/min
[10]; urine, 5 mg, CLr, mean (CV[%]), SAD Parts A and C, 5 mg fasted (n = 6)
  CL renal: 101 mL/min
[10]; urine, 10 mg, CLr, mean (CV[%]), SAD Parts A and C, 10 mg fasted (n = 4)
  CL renal: 89.8 mL/min
[10]; urine, 10 mg, CLr, mean (CV[%]), SAD Parts A and C, 10 mg fed (n = 3)
  CL renal: 103 mL/min
[10]; urine, 20 mg, CLr, mean (CV[%]), SAD Parts A and C, 20 mg fasted (n = 3)
  CL renal: 73.9 mL/min
[10]; urine, 20 mg, CLr, mean (CV[%]), SAD Parts A and C, 20 mg fed (n = 3)
  CL renal: 70.6 mL/min
[10]; urine, SAD Part B, 10 mg fed (n = 7)
  Fe (0–48), mean (CV[%]): 55.77 (15.99) %
[10]; urine, SAD Parts A and C, 5 mg fasted (n = 6)
  Fe (0–48), mean (CV[%]): 69.01 (10.23) %
[10]; urine, SAD Parts A and C, 10 mg fasted (n = 4)
  Fe (0–48), mean (CV[%]): 60.61 (36.10) %
[10]; urine, SAD Parts A and C, 10 mg fed (n = 3)
  Fe (0–48), mean (CV[%]): 49.65 (38.35) %
[10]; urine, SAD Parts A and C, 20 mg fasted (n = 3)
  Fe (0–48), mean (CV[%]): 38.55 (65.52) %
[10]; urine, SAD Parts A and C, 20 mg fed (n = 3)
  Fe (0–48), mean (CV[%]): 29.38 (52.53) %
[11]; 5 mg, 5 mg (n = 8)
  CL renal: 85.2 mL/min
[11]; 10 mg, 10 mg (n = 8)
  CL renal: 88.2 mL/min
[11]; 20 mg, 20 mg (n = 8)
  CL renal: 103 mL/min
[11]; 40 mg, 40 mg (n = 8)
  CL renal: 93.3 mL/min
[11]; 60 mg, 60 mg (n = 8)
  CL renal: 78.7 mL/min
[11]; 5 mg (n = 8)
  Fe (0–24), mean (CV[%]): 48.03 (36.10) %
[11]; 10 mg (n = 8)
  Fe (0–24), mean (CV[%]): 51.79 (24.95) %
[11]; 20 mg (n = 8)
  Fe (0–24), mean (CV[%]): 50.42 (20.58) %
[11]; 40 mg (n = 8)
  Fe (0–24), mean (CV[%]): 48.06 (13.48) %
[11]; 60 mg (n = 8)
  Fe (0–24), mean (CV[%]): 50.48 (24.14) %
[11]; 80 mg Cohort 5 (n = 7)
  Fe (0–24), mean (CV[%]): 43.69 (36.76) %
[11]; 80 mg Cohort 6 (n = 6)
  Fe (0–24), mean (CV[%]): 37.21 (35.47) %
